# Values of other authors in patent US20050059087A1, “Antibodies directed to the deletion mutants of epidermal growth factor receptor and uses thereof” (priority 2003, published 2005).
# Experiments:
# [1] = vs methotrexate, daunorubicin, vincristine; cited from earlier work
# L1210 cells = settings: treatment of L1210 cells in vivo; cited from earlier work
# [2] = test system: P388 lymphocytic leukemia system; settings: in vivo; cited from earlier work
# [3] = test system: human acute lymphoblastic leukemia line CEM; settings: in vitro; cited from earlier work
# [4] = test system: P388, L1210, and LY5178 murine leukemic cell suspensions; settings: in vitro; cited from earlier work
smiles,measurement,setting,value
COc1cc2cc(c1Cl)N(C)C(=O)C[C@H](OC(=O)[C@H](C)N(C)C(C)=O)[C@]1(C)O[C@H]1[C@H](C)[C@@H]1C[C@@](O)(NC(=O)O1)[C@H](OC)/C=C/C=C(\C)C2 [Maytansine],Cytotoxicity relative to conventional cancer chemotherapeutic agents,[1],100 to 1000 fold
same,Cells accumulating in mitosis,L1210 cells,67%
same,Dosage range over which tumor growth was inhibited,[2],50- to 100 fold
same,Inhibitory concentration,[3],≥ 10^−7 mg/ml
same,Inhibitory doses,[4],10^−3 to 10^−1 µg/µl
